{"source": "patent US9433663B2", "about": "“Mobilization of hematopoietic stem cells” (Children's Hospital Medical Center, priority 2008, dated 2016)", "key": {"Cdc42": {"target": "Cdc42 (Homo sapiens, UniProt P60953)", "sequence (P60953 whole entry, species assumed)": "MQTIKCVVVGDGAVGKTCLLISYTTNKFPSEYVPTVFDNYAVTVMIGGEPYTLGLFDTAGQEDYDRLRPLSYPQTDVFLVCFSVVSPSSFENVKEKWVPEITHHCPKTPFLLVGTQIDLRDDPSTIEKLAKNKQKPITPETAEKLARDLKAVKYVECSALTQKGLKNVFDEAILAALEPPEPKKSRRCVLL", "test": "nucleotide exchange: intersectin-induced association of mant-GDP with Cdc42", "format": "biochemical", "conditions": "FIG. 1b", "description": "For example, even at 10 times the IC50 of Cdc42, a 50% inhibition of the association of mant-GDP with Rac or Rho was not achieved."}, "[1]": {"tested_on": "Lin^−c-Kit^+ BM progenitors", "test": "F-actin immunofluorescence in Lin−c-Kit+ BM progenitors", "format": "cell-based, murine", "conditions": "double-sorted Lin^−c-Kit^+ BM progenitors; CASIN pre-treatment at 5 or 10 μM", "description": "(§1) To shed light on potential roles of CASIN in HSPC mobilization, the effects of CASIN on Cdc42-related cellular functions was studied, including adhesion, migration, and F-actin polymerization of progenitor cells in 32D myeloid progenitors. […] SDF-1α stimulation causes a reorganization of F-actin into a cortical ring around the cells. […] Thirdly, to gain further insight into cellular specificity and efficacy of CASIN, and also to rule out possible toxic effects by CASIN, Cdc42-involved BM progenitor cell functions were examined, including proliferation, adhesion, migration, and F-actin polymerization, in Cdc42^+/+ cells in parallel with Cdc42^−/− cells. In line with additional studies in a Cdc42 conditional knockout mouse model as described herein, Cdc42^−/− LDBM cells have increased CFU-forming progenitors compared to those of Cdc42^+/+.\nCells then were stimulated with 100 ng/ml SDF-1α for 45 secs, and further stained with Rhodamine/Phalloidin for actin and DAPI for nucleus as described herein."}, "LDBM cells": {"tested_on": "LDBM cells", "test": "proliferation (CFU) and toxicity in Cdc42+/+ and Cdc42−/− LDBM progenitors", "format": "cell-based, murine", "description": "as §1"}, "LT-HSC": {"tested_on": "LT-HSC", "test": "serial transplantation of CASIN-mobilized PB into NOD/SCID mice", "format": "in vivo", "description": "Whether CASIN administration can induce mobilization of HSC/Ps to peripheral blood of C57Bl/6 mice, mimicking the phenotype observed in Cdc42 conditional knockout mice, was evaluated. First of all, mobilization of hematopoietic progenitor cells was examined by CFU-C assays functionally (FIG. 3a). […] Secondarily, to further explore the ability of CASIN to mobilize LT-HSC which is crucial for long-term repopulation of the mobilized cells, serial transplantations were carried out, where 20 million PB from CASIN-mobilized C57Bl/6 mice was transplanted into primary recipient of NOD/SCID mice, and subsequent secondary and tertiary transplants were finished as well using prior BMs (FIG. 3c). Donor chimerisms were assessed by using H2K^b congenic marker which is positive for donors of C57Bl/6 strain and negative for recipients of NOD/SCID strain. […] Therefore, the studies show CASIN can efficiently mobilize colony-forming hematopoietic progenitors and LT-HSCs with self-renewal and multi-lineage differentiation capacity. Thirdly, to further investigate the potential of CASIN to vacate the BM niche after mobilization, six-color staining of the BM cells was performed from C57Bl/6 mice with or without CASIN treatment followed by FACS analysis. […] Therefore, a transient decrease in BM and a concomitant increase in peripheral organs of HSCs would be beneficial to facilitating the subsequent HSC transplantation.\nTo functionally define the LT-HSC, serial transplantations of mobilized PB from C57Bl/6 mice into sublethally irradiated NOD/SCID mice were carried out. Briefly, 2×10^7 PB cells were harvested 40 hrs after CASIN mobilization, and subsequently transplanted to a sublethally irradiated primary recipient. Chimerisms of donor-derived cells in the BM and PB were monitored over time by FACS analysis of the congenic marker H2K^b. Subsequent secondary and tertiary transplantations were performed using prior BM cells, and monitored by FACS analysis as well."}, "[2]": {"tested_on": "progenitor cells in spleen and liver", "test": "CFU-C assays of spleen and liver after treatment", "format": "in vivo, mice", "conditions": "after CASIN injection"}, "N-RasMA93 cells": {"tested_on": "N-RasMA93 cells", "test": "adhesion of N-RasMA93 leukemia cells via CH296", "format": "cell-based, human", "conditions": "in vitro", "description": "FIG. 5C. Adhesion of leukemia cells via CH296 without or with CASIN pre-treatment at doses of 5 and 10 μM was examined.\nLike normal HSCs, their malignant counterpart, leukemia initiating cells (LICs) reside in their BM niches that provide the structural and physiological conditions supporting their survival and growth. LICs are resistant to traditional chemotherapy by interacting with their BM microenvironment, which are the culprits of leukemia relapses after a period of remission induced by chemotherapy. Detachment of LICs from their niche by CASIN would be a valuable supplementary therapy to the traditional cancer therapies (e.g., chemotherapies). First of all, in vitro effects of CASIN were examined in adhesion, migration, and F-actin polymerization of LICs, each of which is independently important for the retention of LICs in BM niches. Retroviral transduction of an MLL-AF9 fusion cDNA together with N-Ras oncogene into normal human CD34^+cord blood cells led to the establishment of cultures of N-Ras-MA93 cells that can initiate acute myeloid leukemia in NOG mice. […] To address it, a human AML model was set up by transplanting N-RasMA93 cells into NOG mice intravenously."}, "leukemia cells": {"tested_on": "leukemia cells", "test": "apoptosis of leukemia cells by FACS analysis", "format": "cell-based, human", "conditions": "after 24 hrs' CASIN pre-treatment, FIG. 5D"}, "[3]": {"tested_on": "primitive human hematopoietic cells (CD45+CD34+CD38−)", "test": "Example 7 mobilization of human HSC/Ps in NOD-SCID model", "format": "in vivo, NOD-SCID mice transplanted with CD34+ HCB cells", "conditions": "flow cytometry", "description": "The mobilization effects of CASIN on human HSC/Ps using an established preclinical in vivo mouse model are examined. […] This reconstituting population of human hematopoietic cells is operationally defined as SCID-repopulating cells (SRCs), and accordingly represents candidate human HSCs.\nPrimitive CD34+ human neonatal umbilical cord blood cells are transplanted into sublethally irradiated recipients. Around 10-week posttransplantation, human multilineage repopulating capacity of transplanted HSCs is examined using flow cytometry for surface markers representing human lymphoid (CD19, CD20), myeloid (CD15, CD33) and primitive (CD34, CD38) hematopoietic subsets. […] To further characterize the effect of CASIN on mobilization of primitive human HSC mobilization, progenitor potential is determined using functional clonogenic assays of hematopoietic colony-forming units (CFUs) derived from HPCs33. Numbers of CFUs are counted posinjection of CASIN treatment, in comparison with control medium and G-CSF administration."}, "[4]": {"tested_on": "PIP2 induced F-actin assembly", "conditions": "PIP2 induced F-actin assembly in xenopus egg extracts; read-out: IC50 (dose required to inhibit the maximum polymerization rate by 50%); cited from earlier work"}}, "data": [{"smiles": "OCCNC1CCCc2c1[nH]c1ccc(-c3ccccc3)cc21", "note": "(centres unmarked) [CASIN]", "values": [{"measurement": "association of mant-GDP with Cdc42 induced by intersectin", "setting": "Cdc42", "value": "dose-dependent inhibition"}, {"measurement": "SDF-1α mediated reorganization of F-actin into cortical actin ring", "setting": "[1]", "value": "lost their capacities to reorganize F-actin into the cortical actin ring"}, {"measurement": "proliferation of WT progenitors", "setting": "LDBM cells; Cdc42^+/+ LDBM cells, FIG. 2d", "value": "did not affect"}, {"measurement": "side effect on the KO cells", "setting": "LDBM cells; Cdc42^−/− LDBM cells, FIG. 2d", "value": "nor showed any side effect"}, {"measurement": "myeloproliferative disorders (MPDs) or hyperactivation", "setting": "LDBM cells; as compared with the Cdc42 conditional knockout mouse", "value": "did not cause"}, {"measurement": "toxic effect in WT or Cdc42 deficient HSPCs", "setting": "LDBM cells; dose range of 5-10 μM", "value": "without a detectable toxic effect"}, {"measurement": "PB reconstitution of donor-derived cells in the primary recipient", "setting": "LT-HSC; 1-3 mo post transplantation of PB from CASIN-mobilized mice", "value": "reconstituted considerable percentages of total PB"}, {"measurement": "multi-lineage differentiation of engrafted donor cells", "setting": "LT-HSC; BM and PB of the primary recipients", "value": "had undergone multi-lineage differentiations"}, {"measurement": "engraftment of donor-derived cells in BM", "setting": "LT-HSC; primary through tertiary transplantation", "value": "engraftment of donor-derived cells was detected"}, {"measurement": "progenitor cells found in spleen and liver", "setting": "[2]", "value": "increased level"}, {"measurement": "adhesion capacity of N-RasMA93 cells", "setting": "N-RasMA93 cells", "value": "not affected significantly"}, {"measurement": "apoptosis of leukemia cells", "setting": "leukemia cells", "value": "precipitated leukemia cells to apoptosis"}, {"measurement": "frequency and total number of primitive human hematopoietic cells (CD45+CD34+CD38−) in peripheral blood", "setting": "[3]", "value": "increases significantly"}, {"measurement": "IC50", "setting": "[4]", "value": 2, "unit": "µM"}]}]}
